Assay [1] deals with T1, SERT (serotonin transporter) (Homo sapiens, UniProt P31645).
T1 construct: gene SLC6A4
In words: radioligand displacement of [3H]imipramine, CHO cell membranes.

The target of assay [2] is T2, NET (norepinephrine transporter) (Homo sapiens, UniProt P23975).
T2 construct: gene SLC6A2
In words: radioligand displacement of [3H]nisoxetine, CHO cell membranes. (In a radioligand displacement assay an active substance lowers the binding of a labelled ligand.)

The target in assay [3] is T3, DAT (dopamine transporter) (Homo sapiens, UniProt Q01959).
T3 construct: gene SLC6A3
In words: radioligand displacement of [3H]BTCP, CHO cell membranes.

For one compound, inhibition results are on record in paper PMC6382704, “LPM580098, a Novel Triple Reuptake Inhibitor of Serotonin, Noradrenaline, and Dopamine, Attenuates Neuropathic Pain” (Frontiers in Pharmacology, 2019).

The structures appear in SMILES notation.

T1 sequence (P31645 whole entry): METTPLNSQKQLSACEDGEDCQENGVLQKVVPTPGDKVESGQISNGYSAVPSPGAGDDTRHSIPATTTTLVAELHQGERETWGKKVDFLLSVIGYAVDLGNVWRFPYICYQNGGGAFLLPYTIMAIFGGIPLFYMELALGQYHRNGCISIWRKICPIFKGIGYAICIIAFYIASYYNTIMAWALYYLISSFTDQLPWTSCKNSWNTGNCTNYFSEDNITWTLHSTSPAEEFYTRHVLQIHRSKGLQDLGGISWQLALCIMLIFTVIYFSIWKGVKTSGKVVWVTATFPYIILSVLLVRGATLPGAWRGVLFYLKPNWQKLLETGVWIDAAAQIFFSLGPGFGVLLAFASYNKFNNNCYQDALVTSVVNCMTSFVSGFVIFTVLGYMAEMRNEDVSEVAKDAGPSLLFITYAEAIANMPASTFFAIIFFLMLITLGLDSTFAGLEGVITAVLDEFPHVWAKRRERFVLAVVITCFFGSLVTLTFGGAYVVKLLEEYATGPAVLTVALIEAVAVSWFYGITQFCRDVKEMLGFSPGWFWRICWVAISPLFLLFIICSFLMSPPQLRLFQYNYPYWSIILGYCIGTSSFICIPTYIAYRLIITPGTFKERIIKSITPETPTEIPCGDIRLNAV
T2 sequence (P23975 whole entry): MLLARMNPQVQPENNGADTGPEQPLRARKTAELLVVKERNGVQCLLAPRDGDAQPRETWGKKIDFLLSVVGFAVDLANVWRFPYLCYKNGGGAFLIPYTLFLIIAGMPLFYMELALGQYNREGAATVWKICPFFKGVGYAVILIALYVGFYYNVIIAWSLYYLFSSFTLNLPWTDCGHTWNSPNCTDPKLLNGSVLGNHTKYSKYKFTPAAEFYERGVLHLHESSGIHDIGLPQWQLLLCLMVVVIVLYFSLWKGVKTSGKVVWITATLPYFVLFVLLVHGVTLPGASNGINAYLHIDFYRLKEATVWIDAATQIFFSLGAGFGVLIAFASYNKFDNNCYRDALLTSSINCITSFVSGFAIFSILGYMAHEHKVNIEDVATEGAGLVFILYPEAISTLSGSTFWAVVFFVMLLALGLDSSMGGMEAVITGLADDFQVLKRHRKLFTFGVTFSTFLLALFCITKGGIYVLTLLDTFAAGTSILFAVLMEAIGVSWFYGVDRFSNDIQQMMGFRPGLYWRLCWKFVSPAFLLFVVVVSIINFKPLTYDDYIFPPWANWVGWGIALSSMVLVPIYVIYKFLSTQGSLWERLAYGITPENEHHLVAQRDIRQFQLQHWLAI
T3 sequence (Q01959 whole entry): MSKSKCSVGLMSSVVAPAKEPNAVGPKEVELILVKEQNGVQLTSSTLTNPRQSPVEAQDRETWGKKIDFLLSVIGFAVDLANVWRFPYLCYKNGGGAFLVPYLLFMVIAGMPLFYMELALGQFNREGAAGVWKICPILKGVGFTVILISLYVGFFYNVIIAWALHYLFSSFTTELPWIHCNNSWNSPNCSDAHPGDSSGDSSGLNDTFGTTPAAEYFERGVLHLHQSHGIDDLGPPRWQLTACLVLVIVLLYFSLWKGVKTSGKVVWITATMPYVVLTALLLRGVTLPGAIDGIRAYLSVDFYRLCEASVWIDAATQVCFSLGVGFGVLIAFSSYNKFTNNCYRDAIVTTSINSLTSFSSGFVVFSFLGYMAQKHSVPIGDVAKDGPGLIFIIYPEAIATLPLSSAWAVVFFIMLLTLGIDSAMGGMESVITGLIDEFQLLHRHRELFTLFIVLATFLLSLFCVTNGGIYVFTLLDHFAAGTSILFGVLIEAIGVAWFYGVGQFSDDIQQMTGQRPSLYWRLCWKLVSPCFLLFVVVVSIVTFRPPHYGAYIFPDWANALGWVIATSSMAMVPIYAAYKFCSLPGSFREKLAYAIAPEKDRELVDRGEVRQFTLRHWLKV

Broadly, the inhibition is how much of the control response was suppressed. A high value points to a response far below the control. As for `CN(C)CC(c1ccc(Oc2ccccc2)cc1)C1(O)CCCCC1` (stereo not drawn) [LPM580098, 1-[2-(dimethylamino)-1-(4-phenoxyphenyl)ethyl] cyclohexanol], the inhibition at 10 µM in assay [1] is 90.3%; in assay [2], 45%; in assay [3] it was 77.5%.
